Data from patent EP3046573B1, “AMYLIN ANALOGUES” (Zealand Pharma A/S, priority 2013, dated 2015).
Where two headings read alike, the source gives them in different places. Numbered stars: 1 amine (or outer) side, 2 acyl side, 3 side chain; on linkers, the order of the positions; unused ones are H or OH. Bridge positions count the residues as written; N and C are the ends. Square brackets hold non-standard residues; d marks the D form. Peptide text beside a SMILES is read from it. * marks the point of attachment. C20 diacid = O=C(O)CCCCCCCCCCCCCCCCCCC(=O)*; γGlu = O=C(O)[C@H](CCC(=O)[*:2])N[*:1]; Stearoyl = CCCCCCCCCCCCCCCCCC(=O)*; NMeI = CC[C@H](C)[C@H](NC)C(=O)O; Sar = CNCC(=O)O

How the values were obtained:
[1] = molecular target: T1, human calcitonin receptor (hCTR2) (Homo sapiens, UniProt P30988); assay: hCTR2 assay: induction of cAMP (AlphaScreen cAMP Assay kit) in COS7 cells expressing hCTR2; assay type: cell-based
T1 construct: expressed in transfected cells
T1 sequence (P30988 25-474): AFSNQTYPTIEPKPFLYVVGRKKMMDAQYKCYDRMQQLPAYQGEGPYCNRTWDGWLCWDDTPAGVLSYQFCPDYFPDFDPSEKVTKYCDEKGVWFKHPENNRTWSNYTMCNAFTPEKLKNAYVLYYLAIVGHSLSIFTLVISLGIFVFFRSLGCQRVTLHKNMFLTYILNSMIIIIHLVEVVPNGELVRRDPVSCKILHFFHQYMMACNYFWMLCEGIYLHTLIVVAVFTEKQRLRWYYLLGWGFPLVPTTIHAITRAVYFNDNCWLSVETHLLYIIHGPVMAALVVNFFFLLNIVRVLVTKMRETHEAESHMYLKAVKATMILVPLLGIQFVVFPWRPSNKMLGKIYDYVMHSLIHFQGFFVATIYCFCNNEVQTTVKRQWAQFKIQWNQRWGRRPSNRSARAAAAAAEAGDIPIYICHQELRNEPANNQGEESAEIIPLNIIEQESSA
Method in brief: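 COS7 stable hCTR2 clone (RAMP-free); peptide dose-response 15 min 37° C in Tyrode pH 7.4 + 100 µM IBMX + 0.1% casein; lysis 10 min RT; AlphaScreen cAMP; 4PL fit.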

[2] = Solubility assessment (turbidity absorbance at 325 nm); assay type: physicochemical; details: stock 2 mg/ml diluted 1:1, ambient temperature (typically 25°C), n=1; for Solubility, Acetate buffer pH 4: 100 mM acetate buffer pH 4.0; for Solubility, Acetate buffer pH 5: 100 mM acetate buffer pH 5.0; for Solubility, Histidine buffer pH 6: 100 mM histidine buffer pH 6.0; for Solubility, Histidine buffer pH 7: 100 mM histidine buffer pH 7.0; for Solubility, Phosphate buffer pH 6: 100 mM phosphate buffer pH 6.0; for Solubility, Phosphate buffer pH 7: 100 mM phosphate buffer pH 7.0; for Solubility, Phosphate buffer pH 7.5: 100 mM phosphate buffer pH7.5
Method in brief: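 Stock 2 mg/ml peptide, H2O/HCl pH 2.5; 1:1 into 100 mM buffers: acetate pH 4.0/5.0, His pH 6.0/7.0, phosphate pH 6.0/7.0/7.5. A280 + A325, ~25°C, n=1. Soluble ≥ 1 mg/ml if A325 ≤ 0.02.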

Row | EC50 ([1]; cAMP induction in COS7 cells expressing hCTR2, average of a minimum of 3 determinations, read-out: hCTR2 EC50) [nM] | SMILES | EC50 [1] [nM] | Solubility, Acetate buffer pH 4 [2] | Solubility, Acetate buffer pH 5 [2] | Solubility, Histidine buffer pH 6 [2] | Solubility, Histidine buffer pH 7 [2] | Solubility, Phosphate buffer pH 6 [2] | Solubility, Phosphate buffer pH 7 [2] | Solubility, Phosphate buffer pH 7.5 [2]
1 |  | CCCCCCCCCCCCCCCCCC(=O)N[C@@H](CCC(=O)N[C@@H](CCCNC(=N)N)C(=O)N[C@H]1CSSC[C@@H](C(=O)N[C@@H](C)C(=O)N[C@H](C(=O)N[C@@H](CCC(N)=O)C(=O)N[C@@H](CCCNC(=N)N)C(=O)N[C@@H](CC(C)C)C(=O)N[C@@H](C)C(=O)N[C@@H](CCC(=O)O)C(=O)N[C@@H](Cc2ccccc2)C(=O)N[C@@H](CC(C)C)C(=O)N[C@@H](Cc2c[nH]cn2)C(=O)N[C@@H](CCCNC(=N)N)C(=O)N[C@@H](CO)C(=O)N[C@@H](CO)C(=O)N[C@@H](CC(N)=O)C(=O)N[C@@H](CC(N)=O)C(=O)N[C@@H](Cc2ccccc2)C(=O)N(C)CC(=O)N[C@@H](C)C(=O)N(C)[C@H](C(=O)N[C@@H](CC(C)C)C(=O)N[C@@H](CO)C(=O)N[C@@H](CO)C(=O)N[C@H](C(=O)N[C@@H](CC(N)=O)C(=O)N[C@H](C(=O)NCC(=O)N[C@@H](CO)C(=O)N[C@@H](CC(N)=O)C(=O)N[C@H](C(=O)N2CCC[C@H]2C(N)=O)[C@@H](C)O)C(C)C)[C@@H](C)O)[C@@H](C)CC)[C@@H](C)O)NC(=O)[C@H]([C@@H](C)O)NC(=O)[C@H](C)NC(=O)[C@H]([C@@H](C)O)NC(=O)[C@H](CC(N)=O)NC1=O)C(=O)O [Compound 93, [Octadecanoyl]-isoGlu-RC()NTATC()ATQRLAEFLHRSSNNF-Gly(Me)-A-Ile(Me)-LSSTNVGSNTP-NH2] ({Stearoyl-γGlu}-RCNTATCATQRLAEFLHRSSNNF[Sar]A[NMeI]LSSTNVGSNTP-NH2; disulfide 2-7) | 0.064 | SS (SS indicates solubility ≥ 1mg/ml) | SS (SS indicates solubility ≥ 1mg/ml) | SS (SS indicates solubility ≥ 1mg/ml) | SS (SS indicates solubility ≥ 1mg/ml) | SS (SS indicates solubility ≥ 1mg/ml) | SS (SS indicates solubility ≥ 1mg/ml) | SS (SS indicates solubility ≥ 1mg/ml)
2 | 0.082 | CC[C@H](C)[C@@H](C(=O)N[C@@H](CC(C)C)C(=O)N[C@@H](CO)C(=O)N[C@@H](CO)C(=O)N[C@H](C(=O)N[C@@H](CCC(=O)O)C(=O)N[C@H](C(=O)NCC(=O)N[C@@H](CO)C(=O)N[C@@H](CCC(=O)O)C(=O)N[C@H](C(=O)N1CCC[C@H]1C(N)=O)[C@@H](C)O)C(C)C)[C@@H](C)O)N(C)C(=O)CN(C)C(=O)[C@H](Cc1ccccc1)NC(=O)[C@H](CO)NC(=O)[C@H](CO)NC(=O)[C@H](CCCNC(=N)N)NC(=O)[C@H](Cc1c[nH]cn1)NC(=O)[C@H](CC(C)C)NC(=O)[C@H](Cc1ccccc1)NC(=O)[C@H](CCC(=O)O)NC(=O)[C@H](C)NC(=O)[C@H](CC(C)C)NC(=O)[C@H](CCCNC(=N)N)NC(=O)[C@H](CCC(N)=O)NC(=O)[C@@H](NC(=O)[C@H](C)NC(=O)[C@@H]1CSSC[C@H](NC(=O)[C@H](CCCNC(=N)N)NC(=O)CC[C@H](NC(=O)CCCCCCCCCCCCCCCCCCC(=O)O)C(=O)O)C(=O)N[C@@H](CC(N)=O)C(=O)N[C@@H]([C@@H](C)O)C(=O)N[C@@H](C)C(=O)N[C@@H]([C@@H](C)O)C(=O)N1)[C@@H](C)O [Compound 95, [19CD]-isoGlu-RC()NTATC()ATQRLAEFLHRSSF-Gly(Me)-Ile(Me)-LSSTEVGSETP-NH2] ({C20 diacid-γGlu}-RCNTATCATQRLAEFLHRSSF[Sar][NMeI]LSSTEVGSETP-NH2; disulfide 2-7) |  | SS (SS indicates solubility ≥ 1mg/ml) | SS (SS indicates solubility ≥ 1mg/ml) | SS (SS indicates solubility ≥ 1mg/ml) | SS (SS indicates solubility ≥ 1mg/ml) | SS (SS indicates solubility ≥ 1mg/ml) | SS (SS indicates solubility ≥ 1mg/ml) | SS (SS indicates solubility ≥ 1mg/ml)
3 |  | CC[C@H](C)[C@@H](C(=O)N[C@@H](CC(C)C)C(=O)N[C@@H](CO)C(=O)N[C@@H](CO)C(=O)N[C@H](C(=O)N[C@@H](CC(N)=O)C(=O)N[C@H](C(=O)NCC(=O)N[C@@H](CO)C(=O)N[C@@H](CC(N)=O)C(=O)N[C@H](C(=O)N[C@@H](Cc1ccc(O)cc1)C(N)=O)[C@@H](C)O)C(C)C)[C@@H](C)O)N(C)C(=O)[C@H](C)NC(=O)CN(C)C(=O)[C@H](Cc1ccccc1)NC(=O)[C@H](CC(N)=O)NC(=O)[C@H](CC(N)=O)NC(=O)[C@H](CO)NC(=O)[C@H](CO)NC(=O)[C@H](CCCNC(=N)N)NC(=O)[C@H](Cc1c[nH]cn1)NC(=O)[C@H](CC(C)C)NC(=O)[C@H](Cc1ccccc1)NC(=O)[C@H](CCC(=O)O)NC(=O)[C@H](C)NC(=O)[C@H](CC(C)C)NC(=O)[C@H](CCCNC(=N)N)NC(=O)[C@H](CCC(N)=O)NC(=O)[C@@H](NC(=O)[C@H](C)NC(=O)[C@@H]1CSSC[C@H](NC(=O)[C@H](CCCNC(=N)N)NC(=O)CC[C@H](NC(=O)CCCCCCCCCCCCCCCCCCC(=O)O)C(=O)O)C(=O)N[C@@H](CC(N)=O)C(=O)N[C@@H]([C@@H](C)O)C(=O)N[C@@H](C)C(=O)N[C@@H]([C@@H](C)O)C(=O)N1)[C@@H](C)O [Compound 156, [19CD]-isoGlu-RC()NTATC()ATQRLAEFLHRSSNNF-Gly(Me)-A-Ile(Me)-LSSTNVGSNTY-NH2] ({C20 diacid-γGlu}-RCNTATCATQRLAEFLHRSSNNF[Sar]A[NMeI]LSSTNVGSNTY-NH2; disulfide 2-7) | 0.54 | SS (SS indicates solubility ≥ 1mg/ml) | SS (SS indicates solubility ≥ 1mg/ml) | SS (SS indicates solubility ≥ 1mg/ml) | II (II indicates solubility ≤ 1 mg/ml) | SS (SS indicates solubility ≥ 1mg/ml) | II (II indicates solubility ≤ 1 mg/ml) | II (II indicates solubility ≤ 1 mg/ml)
